Consider one compound from EP4786487A1, “PEPTIDE” (Peptidream Inc, priority 2023, dated 2025).

Test [1] relates to DBA/2 mdx model mice. In words: Subcutaneously administered peptide, improvement of muscle strength in DBA/2 mdx mice. The following applies: Fig. 5. It is filed as in vivo, DBA/2N-mdx mice. The protocol:
In this Example, the effect of the peptide Myostatin_99_v145 (SEQ ID NO: 30) was evaluated on improvement of muscle strength in DMD model mice.
To twenty-week-old female DBA/2N-mdx mice (Central Institute for Experimental Medicine and Life Science), Myostatin_99_v145 or solvent control (PBS) was subcutaneously administered once a week for 4 weeks as shown in Table 12. As a Comparative Example, a single intravenous dose of anti-latent myostatin antibody (GYM329-BS) was administered.
(§1) Using a smart-type grip strength meter for rats and mice (MK-380V; Muromachi Kikai Co., Ltd.), forelimb and hindlimb grip strength measurements were performed on the day of completion of the acclimation period (grouping day), and on Days 7, 14, 21, and 26. The measurements were conducted with individual identification numbers blinded so that the examiner was unaware of the test conditions of the mice. The grip strength was measured seven times consecutively, and the average of five points, excluding the two points: the highest and lowest values, was used as individual data.

Test [2] deals with B10-mdx mice. Kind of test: Orally administered peptide, improvement of muscle strength in B10-mdx mice. It is filed as in vivo, C57BL/10-mdx/Jcl mice. Conditions: oral administration 65 and 200 mg/kg once a week, 4 times, after fasting; Fig. 6. The protocol: In this Example, the effect of the peptide Myostatin_99_v145 (SEQ ID NO: 30) was evaluated on improvement of muscle strength when the peptide was orally administered to DMD model mice.
B10-mdx mice were used as the DMD model mice. To five-week-old female C57BL/10-mdx/Jcl mice (CLEA Japan, Inc.; NPL 17), the peptide or solvent control (Vehicle) PBS was subcutaneously administered once a week for 4 weeks. In addition, the peptide or the solvent control, namely 30% Labrasol/PBS, was administered orally to the DMD model mice once a week after fasting in a total of 4 times.
as §1, with “day; 5-week-old),” for “day),”, “Day 7 (6-week-old), Day 14 (7-week-old), Day 20 (8-week-old),” for “Days 7, 14, 21,”, “Day 27 (9-week-old).” for “26.”

Test [3] concerns the target T1, Myostatin (Homo sapiens, UniProt O14793).
T1 construct: active myostatin (also called mature myostatin) is a homodimer consisting of two C-terminal growth factor domains; purchased R&D systems 788-G8/CF
T1 sequence (O14793 267-375): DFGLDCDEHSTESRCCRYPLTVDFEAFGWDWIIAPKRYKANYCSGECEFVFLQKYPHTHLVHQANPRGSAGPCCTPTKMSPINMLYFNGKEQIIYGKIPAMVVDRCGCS
In words: Reporter gene assay for myostatin signaling in HEK-Blue TGF-β Cells, myostatin. It is filed as cell-based. The following applies: myostatin 3 ng/mL. The protocol: (§2) In this Example, the in vitro activity of the peptide Myostatin_99_v145 (SEQ ID NO: 30) was evaluated using a reporter gene assay for myostatin signaling.
(§3) HEK-Blue (trademark) TGF-β Cells (hkb-tgfbv2, InvivoGen) were cultured in DMEM High glucose GlutaMAX (10569010, Thermo) containing 10% FBS (Heat-inactivated FBS QUALIFIED, 10270-106, Gibco), […] Normocin (ant-nr-05, InvivoGen), […] Zeocin (ant-zn-05, InvivoGen), and 50 µg/mL Gentamicin (11980-14, Nacalai Tesque). The cultured HEK-Blue (trademark) TGF-β Cells were suspended in an assay medium containing DMEM High glucose GlutaMAX, 50 µg/mL Gentamicin, and 1% bovine serum albumin (A7030, Sigma). The cells were seeded at 4 × 10^4 cells/well onto a 96-well plate (356461, Corning), namely BioCoat poly-D-lysine multi-well plate, and allowed to stand for 30 min.
(§4) A 4-fold dilution series of the peptide, namely Myostatin_99_v145 (SEQ ID NO: 30), synthesized according to Example 1, the final concentration of which was from 0.006 nmol/L up to a maximum concentration of 0.1 µmol/L for the myostatin inhibitory activity test, was added to a 96-well U-bottom Non-Binding MicroPlate (650901, Greiner). For the GDF-11 or activin A inhibitory activity test, a 4-fold dilution series, the final concentration of which was from 0.12 nmol/L to a maximum concentration of 2 µmol/L, was added to a 96-well U-bottom Non-Binding MicroPlate (650901, Greiner).
(§5) Subsequently, myostatin (788-G8/CF, R&D systems), GDF-11 (1958-GD-G8/CF, R&D systems), or activin A (338-AC-010/CF, R&D systems) was each added at a final concentration of 3 ng/mL. The plate was sealed with Parafilm, and incubated in a CO2 incubator (37°C, 5% CO2) for 30 min. The samples were added at 50 µL/well to a plate containing HEK-Blue (trademark) TGF-β Cells, and incubated in a CO2 incubator (37°C, 5% CO2) for 24 hours.
(§6) To each well of a UV-Star µClear 96-well (655801, Greiner), 180 µL of Detection buffer (prepared by diluting, with 17.64 mL of distilled water, 180 µL of QUANTI-Blue buffer and 180 µL of QUANTI-Blue solution) was dispensed. Here, 20 µL of the supernatant of the culture medium was transferred to the above Detection buffer and stirred with a shaker for 1 min. The plate was covered and incubated in a CO2 incubator for 3 to 5 hours, and absorbance was measured (Envision 2104, PerkinElmer, 620 nm/bp 40 nm). Based on the absorbance, IC50 values of the peptide were calculated using software (Prism 9, GraphPad).

Test [4] relates to Myostatin. The description is as above. Format: cell-based. The protocol:
as §2, §3, §4, §5, §6

Starred links: 1 amine or outer side, 2 acyl side, 3 side chain; linkers in the order of their positions; H or OH if unused. Positions of bridges follow the written chain, without caps; N, C: chain ends. Non-standard residues stand in square brackets, D forms with d. Residues, ends and D or L forms follow the SMILES beside them. Phe(3-OCH2COOH) = N[C@@H](Cc1cccc(OCC(=O)O)c1)C(=O)O; Phe(4-COOH) = N[C@@H](Cc1ccc(C(=O)O)cc1)C(=O)O; Gly(N(CH2)3COOH) = O=C(O)CCCNCC(=O)O; X1 = CCCCCCC[C@H](N[*:1])C(=O)[*:2]; NMeF = CN[C@@H](Cc1ccccc1)C(=O)O; NMeA = CN[C@@H](C)C(=O)O

For the compound `CCCCCCC[C@@H]1NC(=O)[C@H](Cc2ccccc2)N(C)C(=O)[C@H](CCCNC(=N)N)NC(=O)[C@H](Cc2ccc(C(=O)O)cc2)NC(=O)[C@H](Cc2cccc(OCC(=O)O)c2)NC(=O)[C@H](C)N(C)C(=O)[C@H]([C@@H](C)CC)NC(=O)[C@H](Cc2ccccc2)N(C)C(=O)[C@H](Cc2ccc(O)cc2)NC(=O)[C@H](Cc2c[nH]c3ccccc23)NC(=O)[C@H](C)NC(=O)CN(CCCC(=O)O)C(=O)CSC[C@H](C(=O)O)NC(=O)[C@H](Cc2ccccc2)N(C)C(=O)[C@H](C)N(C)C1=O` [Myostatin_99_v145] ({CH2CO}-[Gly(N(CH2)3COOH)]AWY[NMeF]I[NMeA][Phe(3-OCH2COOH)][Phe(4-COOH)]R[NMeF][X1][NMeA][NMeF][dC]-OH; thioether N-15), the “time-course change in grip strength” value in test [1] (1 and 3 mg/kg subcutaneous once a week for 4 weeks, vs. PBS Vehicle group) is listed as “continuous increase in grip strength was observed in a dose-dependent manner”; in test [2], “continuous increase in grip strength was observed in a dose-dependent manner”. Besides, the “maximum effect (grip strength) compared with GYM329-BS” value in test [1] (GYM329-BS 10 mg/kg single intravenous dose) is given as “higher than that of GYM329-BS”. For the same compound, the IC50 in test [3] (read-out: IC50 (nmol/L) Myostatin) was 0.23 nmol/L. In addition, the IC90 in test [3] (read-out: IC90 (nmol/L) Myostatin) was 0.64 nmol/L. For the same compound, the entries for the “Selectivity (GDF11/myostatin)” value in test [4] (from IC50) and in test [4] (from IC90) were 270 and 1,088, respectively.
